From patent US9931379B2, “Oxyntomodulin analogs and methods of making and using same” (The Research Foundation for The State University of New York, priority 2015, dated 2018)
Starred links: 1 amine or outer side, 2 acyl side, 3 side chain; linkers in the order of their positions; H or OH if unused. Positions of bridges follow the written chain, without caps; N, C: chain ends. Non-standard residues stand in square brackets, D forms with d. Residues, ends and D or L forms follow the SMILES beside them. Biphenyl(4,4'-CH2)2 = c1cc(-c2ccc(C[*:2])cc2)ccc1C[*:1]; X3 = C(=Cc1ccc(C=CC[*:2])cc1)C[*:1]

Key:
GLP-1R = molecular target: T1, GLP-1R (Homo sapiens, UniProt P43220); assay: CRE-driven luciferase reporter assay, HEK293 cells overexpressing GLP-1R; assay type: cell-based
T1 construct: expressed in transfected cells
T1 sequence (P43220 24-463): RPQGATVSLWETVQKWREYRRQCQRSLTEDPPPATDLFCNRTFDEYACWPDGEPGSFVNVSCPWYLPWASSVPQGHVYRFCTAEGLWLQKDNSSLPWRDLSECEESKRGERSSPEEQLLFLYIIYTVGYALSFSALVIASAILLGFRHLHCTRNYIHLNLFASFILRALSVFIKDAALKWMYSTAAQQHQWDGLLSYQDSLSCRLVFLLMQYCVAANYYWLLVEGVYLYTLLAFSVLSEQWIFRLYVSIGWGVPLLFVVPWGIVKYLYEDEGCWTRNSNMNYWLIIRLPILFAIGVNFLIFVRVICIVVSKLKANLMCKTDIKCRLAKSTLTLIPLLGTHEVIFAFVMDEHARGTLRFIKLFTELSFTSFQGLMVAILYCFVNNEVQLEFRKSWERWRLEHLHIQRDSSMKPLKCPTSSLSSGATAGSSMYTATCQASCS
Protocol: (§1) The surviving cells (referred to as CRE-HEK293) were expanded and then transfected with a G418 selective mammalian expression plasmid encoding human GCGR or GLP-1R, followed by geneticin selection (Life technologies, Carlsbad, Calif.). Single-colony stable cell lines expressing both CRE-luciferase and GCGR/GLP-1R were then established for in vitro activity assays.
(§2) HEK293-GCGR-CRE and HEK293-GLP-1R-CRE cells were seeded in a white 384-well plate at a density of 5,000 cells per well and cultured for 24 hours in DMEM with 10% FBS at 37° C. with 5% CO2. Cells were treated with different peptides in a dose dependent manner. After 24 hours, 10 μL of Bright-Glo reagent (Promega, Madison, Wis.) was added to each well and luminescence was determined using an Envision multilabel plate reader (PerkinElmer, Waltham, Mass.). The EC50 of each peptide was calculated using GraphPad Prism 6 software (GraphPad, San Diego, Calif.).

GCGR = molecular target: T2, GCGR (Homo sapiens, UniProt P47871); assay: CRE-driven luciferase reporter assay, HEK293 cells overexpressing GCGR; assay type: cell-based; details: for GCGR activation, result in words: comparison
T2 construct: expressed in transfected cells
T2 sequence (P47871 26-477): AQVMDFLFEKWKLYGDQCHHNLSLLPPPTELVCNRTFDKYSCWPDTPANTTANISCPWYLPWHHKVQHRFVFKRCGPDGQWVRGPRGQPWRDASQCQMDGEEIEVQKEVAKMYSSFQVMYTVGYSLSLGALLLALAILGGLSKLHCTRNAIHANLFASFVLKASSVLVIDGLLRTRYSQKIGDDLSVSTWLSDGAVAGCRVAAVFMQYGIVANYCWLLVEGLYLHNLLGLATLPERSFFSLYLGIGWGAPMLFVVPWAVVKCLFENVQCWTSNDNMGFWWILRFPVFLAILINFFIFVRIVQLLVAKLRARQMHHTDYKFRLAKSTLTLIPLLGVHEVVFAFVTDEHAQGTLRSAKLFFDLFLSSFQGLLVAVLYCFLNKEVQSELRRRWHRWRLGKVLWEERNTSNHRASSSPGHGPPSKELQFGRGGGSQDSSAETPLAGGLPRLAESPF
Protocol: as §1, §2

[1] = compared to its linear counterpart
[2] = compared to its D,L counterpart, peptide 1

Compound: CC[C@H](C)[C@H](NC(=O)[C@H](CC(N)=O)NC(=O)[C@H](CC(N)=O)NC(=O)[C@H](CCCNC(=N)N)NC(=O)[C@H](CC(N)=O)NC(=O)[C@H](CCCNC(=N)N)NC(=O)[C@H](CCCCN)NC(=O)[C@@H](NC(=O)[C@H](CC(N)=O)NC(=O)[C@H](CCSC)NC(=O)[C@H](CC(C)C)NC(=O)[C@H](Cc1c[nH]c2ccccc12)NC(=O)[C@@H]1CSCC=Cc2ccc(cc2)C=CCSC[C@H](NC(=O)[C@H](CCC(=O)O)NC(=O)[C@H](CC(=O)O)NC(=O)[C@H](CC(C)C)NC(=O)[C@H](Cc2ccc(O)cc2)NC(=O)[C@H](CCCCN)NC(=O)[C@H](CO)NC(=O)[C@H](Cc2ccc(O)cc2)NC(=O)[C@H](CC(=O)O)NC(=O)[C@H](CO)NC(=O)[C@@H](NC(=O)[C@H](Cc2ccccc2)NC(=O)[C@@H](NC(=O)CNC(=O)[C@H](CCC(N)=O)NC(=O)[C@@H](CO)NC(=O)[C@@H](N)Cc2c[nH]cn2)[C@@H](C)O)[C@@H](C)O)C(=O)N[C@@H](C)C(=O)N[C@@H](C)C(=O)N[C@@H](CCCCN)C(=O)N[C@@H](CCC(=O)O)C(=O)N[C@@H](Cc2ccccc2)C(=O)N[C@@H]([C@@H](C)CC)C(=O)N1)[C@@H](C)O)C(=O)N[C@@H](C)C(N)=O [compound 12] (H-H[dS]QGTFTSDYSKYLDECAAKEFICWLMNTKRNRNNIA-NH2; linker 17-24 via X3)
- EC50 (GLP-1R; Table 2, mean and standard deviation, assay performed three times, read-out: Agonist activity (nM) GLP-1R): 0.45 ± 0.03 nM
- EC50 (GCGR; Table 2, mean and standard deviation, assay performed three times, read-out: Agonist activity (nM) GCGR): 1 ± 0.12 nM

Compound: CC[C@H](C)[C@H](NC(=O)[C@H](CC(N)=O)NC(=O)[C@H](CC(N)=O)NC(=O)[C@H](CCCNC(=N)N)NC(=O)[C@H](CC(N)=O)NC(=O)[C@H](CCCNC(=N)N)NC(=O)[C@H](CCCCN)NC(=O)[C@@H](NC(=O)[C@H](CC(N)=O)NC(=O)[C@H](CCSC)NC(=O)[C@H](CC(C)C)NC(=O)[C@H](Cc1c[nH]c2ccccc12)NC(=O)[C@H](CS)NC(=O)[C@@H](NC(=O)[C@H](Cc1ccccc1)NC(=O)[C@H](CC(=O)O)NC(=O)[C@H](CCC(N)=O)NC(=O)[C@H](C)NC(=O)[C@H](CCCNC(=N)N)NC(=O)[C@@H](CS)NC(=O)[C@H](CO)NC(=O)[C@H](CC(=O)O)NC(=O)[C@H](CC(C)C)NC(=O)[C@H](Cc1ccc(O)cc1)NC(=O)[C@H](CCCCN)NC(=O)[C@H](CO)NC(=O)[C@H](Cc1ccc(O)cc1)NC(=O)[C@H](CC(=O)O)NC(=O)[C@H](CO)NC(=O)[C@@H](NC(=O)[C@H](Cc1ccccc1)NC(=O)[C@@H](NC(=O)CNC(=O)[C@H](CCC(N)=O)NC(=O)[C@@H](CO)NC(=O)[C@@H](N)Cc1c[nH]cn1)[C@@H](C)O)[C@@H](C)O)C(C)C)[C@@H](C)O)C(=O)N[C@@H](C)C(N)=O [peptide 1] (H-H[dS]QGTFTSDYSKYLDS[dC]RAQDFVCWLMNTKRNRNNIA-NH2)
- GLP-1R activation, result in words (GLP-1R; comparison): reduced potency
- GCGR activation, result in words (GCGR): more potently than peptide 2

Compound: CC[C@H](C)[C@H](NC(=O)[C@H](CC(N)=O)NC(=O)[C@H](CC(N)=O)NC(=O)[C@H](CCCNC(=N)N)NC(=O)[C@H](CC(N)=O)NC(=O)[C@H](CCCNC(=N)N)NC(=O)[C@H](CCCCN)NC(=O)[C@@H](NC(=O)[C@H](CC(N)=O)NC(=O)[C@H](CCSC)NC(=O)[C@H](CC(C)C)NC(=O)[C@H](Cc1c[nH]c2ccccc12)NC(=O)[C@@H]1CSCc2ccc(cc2)-c2ccc(cc2)CSC[C@@H](NC(=O)[C@H](CO)NC(=O)[C@H](CC(=O)O)NC(=O)[C@H](CC(C)C)NC(=O)[C@H](Cc2ccc(O)cc2)NC(=O)[C@H](CCCCN)NC(=O)[C@H](CO)NC(=O)[C@H](Cc2ccc(O)cc2)NC(=O)[C@H](CC(=O)O)NC(=O)[C@H](CO)NC(=O)[C@@H](NC(=O)[C@H](Cc2ccccc2)NC(=O)[C@@H](NC(=O)CNC(=O)[C@H](CCC(N)=O)NC(=O)[C@@H](CO)NC(=O)[C@@H](N)Cc2c[nH]cn2)[C@@H](C)O)[C@@H](C)O)C(=O)N[C@@H](CCCNC(=N)N)C(=O)N[C@@H](C)C(=O)N[C@@H](CCC(N)=O)C(=O)N[C@@H](CC(=O)O)C(=O)N[C@@H](Cc2ccccc2)C(=O)N[C@@H](C(C)C)C(=O)N1)[C@@H](C)O)C(=O)N[C@@H](C)C(N)=O [peptide 3] (H-H[dS]QGTFTSDYSKYLDS[dC]RAQDFVCWLMNTKRNRNNIA-NH2; linker 17-24 via Biphenyl(4,4'-CH2)2)
- increase in activity toward GLP-1R on crosslinking (GLP-1R; [1]): 2 fold
- increase in activity toward GCGR on crosslinking (GCGR; [1]): 16 fold

Compound: CC[C@H](C)[C@H](NC(=O)[C@H](CC(N)=O)NC(=O)[C@H](CC(N)=O)NC(=O)[C@H](CCCNC(=N)N)NC(=O)[C@H](CC(N)=O)NC(=O)[C@H](CCCNC(=N)N)NC(=O)[C@H](CCCCN)NC(=O)[C@@H](NC(=O)[C@H](CC(N)=O)NC(=O)[C@H](CCSC)NC(=O)[C@H](CC(C)C)NC(=O)[C@H](Cc1c[nH]c2ccccc12)NC(=O)[C@H](CS)NC(=O)[C@@H](NC(=O)[C@H](Cc1ccccc1)NC(=O)[C@H](CC(=O)O)NC(=O)[C@H](CCC(N)=O)NC(=O)[C@H](C)NC(=O)[C@H](CCCNC(=N)N)NC(=O)[C@H](CS)NC(=O)[C@H](CO)NC(=O)[C@H](CC(=O)O)NC(=O)[C@H](CC(C)C)NC(=O)[C@H](Cc1ccc(O)cc1)NC(=O)[C@H](CCCCN)NC(=O)[C@H](CO)NC(=O)[C@H](Cc1ccc(O)cc1)NC(=O)[C@H](CC(=O)O)NC(=O)[C@H](CO)NC(=O)[C@@H](NC(=O)[C@H](Cc1ccccc1)NC(=O)[C@@H](NC(=O)CNC(=O)[C@H](CCC(N)=O)NC(=O)[C@@H](CO)NC(=O)[C@@H](N)Cc1c[nH]cn1)[C@@H](C)O)[C@@H](C)O)C(C)C)[C@@H](C)O)C(=O)N[C@@H](C)C(N)=O [peptide 4] (H-H[dS]QGTFTSDYSKYLDSCRAQDFVCWLMNTKRNRNNIA-NH2)
- increase in GLP-1R activity (GLP-1R; [2]): roughly 2 fold
- increase in GCGR activity (GCGR; [2]): roughly 2 fold

Compound: CC[C@H](C)[C@H](NC(=O)[C@H](CC(N)=O)NC(=O)[C@H](CC(N)=O)NC(=O)[C@H](CCCNC(=N)N)NC(=O)[C@H](CC(N)=O)NC(=O)[C@H](CCCNC(=N)N)NC(=O)[C@H](CCCCN)NC(=O)[C@@H](NC(=O)[C@H](CC(N)=O)NC(=O)[C@H](CCSC)NC(=O)[C@H](CC(C)C)NC(=O)[C@H](Cc1c[nH]c2ccccc12)NC(=O)[C@H](CS)NC(=O)[C@@H](NC(=O)[C@H](Cc1ccccc1)NC(=O)[C@H](CC(C)C)NC(=O)[C@H](CCCNC(=N)N)NC(=O)[C@@H](NC(=O)[C@H](C)NC(=O)[C@H](CS)NC(=O)[C@H](CCC(=O)O)NC(=O)[C@H](CC(=O)O)NC(=O)[C@H](CC(C)C)NC(=O)[C@H](Cc1ccc(O)cc1)NC(=O)[C@H](CCCCN)NC(=O)[C@H](CO)NC(=O)[C@H](Cc1ccc(O)cc1)NC(=O)[C@H](CC(=O)O)NC(=O)[C@H](CO)NC(=O)[C@@H](NC(=O)[C@H](Cc1ccccc1)NC(=O)[C@@H](NC(=O)CNC(=O)[C@H](CCC(N)=O)NC(=O)[C@@H](CO)NC(=O)[C@@H](N)Cc1c[nH]cn1)[C@@H](C)O)[C@@H](C)O)C(C)C)[C@@H](C)CC)[C@@H](C)O)C(=O)N[C@@H](C)C(N)=O [peptide 8] (H-H[dS]QGTFTSDYSKYLDECAVRLFICWLMNTKRNRNNIA-NH2)
- GCGR activation, result in words (GCGR): less potent
